Measured values published in PubChem BioAssay (NCI).
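96-well plates; 48 h exposure; 5 concentrations. Endpoints by linear interpolation between flanking doses. Not reached: highest tested concentration assigned. Definition used: TGI = concentration required for complete inhibition of growth.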

Columns and labels:
Assay in all cases: DTP human tumour cell line panel, 48 h
HCC-2998 colon = tested on: HCC-2998 colon
SK-MEL-28 melanoma = tested on: SK-MEL-28 melanoma
OVCAR-8 ovarian = tested on: OVCAR-8 ovarian
LXFL 529 NSCLC = tested on: LXFL 529 NSCLC
RXF-631 renal = tested on: RXF-631 renal
UACC-62 melanoma = tested on: UACC-62 melanoma
K-562 leukemia = tested on: K-562 leukemia
KM20L2 colon = tested on: KM20L2 colon
HCT-116 colon = tested on: HCT-116 colon
OVCAR-3 ovarian = tested on: OVCAR-3 ovarian
HT29 colon = tested on: HT29 colon
786-0 renal = tested on: 786-0 renal
OVCAR-4 ovarian = tested on: OVCAR-4 ovarian
SK-OV-3 ovarian = tested on: SK-OV-3 ovarian
MALME-3M melanoma = tested on: MALME-3M melanoma
HOP-92 NSCLC = tested on: HOP-92 NSCLC
LOX IMVI melanoma = tested on: LOX IMVI melanoma
TK-10 renal = tested on: TK-10 renal
SNB-75 CNS = tested on: SNB-75 CNS
NCI-H522 lung = tested on: NCI-H522 lung
DMS 114 small cell lung = tested on: DMS 114 small cell lung
RXF 393 renal = tested on: RXF 393 renal
IGROV1 ovarian = tested on: IGROV1 ovarian
MOLT-4 leukemia = tested on: MOLT-4 leukemia
M19-MEL melanoma = tested on: M19-MEL melanoma
A549 NSCLC = tested on: A549 NSCLC
CAKI-1 renal = tested on: CAKI-1 renal
HOP-18 NSCLC = tested on: HOP-18 NSCLC
SNB-78 CNS = tested on: SNB-78 CNS
U251 CNS = tested on: U251 CNS
SK-MEL-2 melanoma = tested on: SK-MEL-2 melanoma
KM12 colon = tested on: KM12 colon
ACHN renal = tested on: ACHN renal
COLO 205 colon = tested on: COLO 205 colon
EKVX NSCLC = tested on: EKVX NSCLC
DLD-1 colon = tested on: DLD-1 colon
SF-268 CNS = tested on: SF-268 CNS
OVCAR-5 ovarian = tested on: OVCAR-5 ovarian
CCRF-CEM leukemia = tested on: CCRF-CEM leukemia
M14 melanoma = tested on: M14 melanoma
UACC-257 melanoma = tested on: UACC-257 melanoma
UO-31 renal = tested on: UO-31 renal
SNB-19 CNS = tested on: SNB-19 CNS
HCT-15 colon = tested on: HCT-15 colon
SF-539 CNS = tested on: SF-539 CNS
NCI-H226 lung = tested on: NCI-H226 lung
DMS 273 small cell lung = tested on: DMS 273 small cell lung
HOP-62 NSCLC = tested on: HOP-62 NSCLC
XF 498 CNS = tested on: XF 498 CNS
NCI-H460 lung = tested on: NCI-H460 lung
HL-60(TB) leukemia = tested on: HL-60(TB) leukemia
SK-MEL-5 melanoma = tested on: SK-MEL-5 melanoma
SN12C renal = tested on: SN12C renal
SR leukemia = tested on: SR leukemia
SF-295 CNS = tested on: SF-295 CNS
SW-620 colon = tested on: SW-620 colon
NCI-H23 lung = tested on: NCI-H23 lung
RPMI-8226 leukemia = tested on: RPMI-8226 leukemia
A498 renal = tested on: A498 renal

Measured: TGI

N/C(=N\N=C\c1ccc(O)c(O)c1)NO
> 100 µM: all assays above
